Results published in patent publication US20070286822A1, “Compounds for the Treatment of Periodontal Disease” (ANACOR PHARMACEUTICALS INC., priority 2006, published 2007).

| melting point [°C] | SMILES |
| --- | --- |
| 163 to 166 | O=C(O)COc1ccc2c(c1)COB2O [C42, 2-(1-hydroxy-1,3-dihydrobenzo[c][1,2]oxaborol-5-yloxy)acetic acid] |
| 126 to 133 | OB1OCc2ccc(NCc3ccccc3)cc21 [C77, 6-(benzylamino)benzo[c][1,2]oxaborol-1(3H)-ol] |
| 190 to 195 | O=C(COc1ccc2c(c1)COB2O)N1CCN(c2ncccn2)CC1 [C47, 2-(1-hydroxy-1,3-dihydrobenzo[c][1,2]oxaborol-5-yloxy)-1-(4-(pyrimidin-2-yl)piperazin-1-yl)ethanone] |
| 124 to 128 | Cc1ccc2c(c1)COB2O [C8, 5-methylbenzo[c][1,2]oxaborol-1(3H)-ol] |
| 120 to 124 | COc1ccc2c(ccn2-c2ccc3c(c2)B(O)OC3)c1 [C68, 6-(5-methoxy-1H-indol-1-yl)benzo[c][1,2]oxaborol-1(3H)-ol] |
| 79 to 88 | [O-][S+](c1ccc(C(F)(F)F)cc1)c1ccc2c(c1)B(O)OC2 (stereo not shown) [C93, 6-(4-(trifluoromethyl)phenylsulfinyl)benzo[c][1,2]oxaborol-1(3H)-ol] |
| 119 to 130 | OB1OCc2ccc(Oc3ccc(Cl)cc3)cc21 [C20, 6-(4-chlorophenoxy)benzo[c][1,2]oxaborol-1(3H)-ol] |
| 180 to 192 | COc1ccc(S(=O)(=O)c2ccc3c(c2)B(O)OC3)cc1 [C33, 6-(4-methoxyphenylsulfonyl)benzo[c][1,2]oxaborol-1(3H)-ol] |
| 33 to 35 | Fc1ccc2c(c1)COB2c1ccsc1 [compound 13, 1,3-Dihydro-5-fluoro-1-(thiophen-3-yl)-2,1-benzoxaborole] |
| 117 to 120 | CSc1ccc(Sc2ccc3c(c2)B(O)OC3)cc1 [C94, 6-(4-(methylthio)phenylthio)benzo[c][1,2]oxaborol-1(3H)-ol] |
| 120 to 124 | OB1OCc2cccc(F)c21 [C86, 7-fluorobenzo[c][1,2]oxaborol-1(3H)-ol] |
| 139 to 143 | OB1OCc2ccc3ccccc3c21 [C11, naphtho[1,2-c][1,2]oxaborol-1(3H)-ol] |
| 135 to 141 | COc1ccc2c(c1)c(Sc1ccccc1)cn2-c1ccc2c(c1)B(O)OC2 [C72, 6-(5-methoxy-3-(phenylthio)-1H-indol-1-yl)benzo[c][1,2]oxaborol-1(3H)-ol] |
| 107 to 111 | Cc1cccc2c1B(O)OC2 [C65, 7-methylbenzo[c][1,2]oxaborol-1(3H)-ol] |
| 48 to 49 | Cc1cccc(B2OCc3cc(F)ccc32)c1 [9i, 1,3-Dihydro-5-fluoro-1-(3-methylphenyl)-2,1-benzoxaborole] |
| 53 to 55 | Fc1ccc(B2OCc3ccccc32)cc1 [9e, 1,3-Dihydro-1-(4-fluorophenyl)-2,1-benzoxaborole] |
| > 250 | OB1OCc2cc3c(cc21)COB3O [C60, 3,7-dihydro-1,5-dihydroxy-1H,3H-Benzo[1,2-c:4,5-c′]bis[1,2]oxaborole] |
| 149 to 154 | OB1OCc2ccc(-n3ccc4cc(Cl)ccc43)cc21 [C75, 6-(5-chloro-1H-indol-1-yl)benzo[c][1,2]oxaborol-1(3H)-ol] |
| > 225 | N#CCCSc1cn(-c2ccc3c(c2)B(O)OC3)c2ccc(Cl)cc12 [C76, 3-(5-chloro-1-(1-hydroxy-1,3-dihydrobenzo[c][1,2]oxaborol-6-yl)-1H-indol-3-ylthio)propanenitrile] |
| 145 to 151 | OB1OCc2ccc(-n3cc(Sc4ccccc4)c4cc(Cl)ccc43)cc21 [C80, 6-(5-chloro-3-(phenylthio)-1H-indol-1-yl)benzo[c][1,2]oxaborol-1(3H)-ol] |

| melting point [°C] | SMILES |
| --- | --- |
| 185 to 189 | OB1OCc2cc3c(cc21)OCO3 [C69, 5,6-methylenedioxybenzo[c][1,2]oxaborol-1(3H)-ol] |
| 80 to 82 | Fc1cccc(B2OCc3cc(F)ccc32)c1 [9g, 1,3-Dihydro-5-fluoro-1-(3-fluorophenyl)-2,1-benzoxaborole] |
| 139 to 144 | Cc1ccc(Sc2ccc3c(c2)B(O)OC3)cc1 [C95, 6-(p-tolylthio)benzo[c][1,2]oxaborol-1(3H)-ol] |
| 48 to 49 | Cc1ccc(B2OCc3cc(F)ccc32)cc1 [9j, 1,3-Dihydro-5-fluoro-1-(4-methylphenyl)-2,1-benzoxaborole] |
| 85 to 95 | CN(c1ccc2c(c1)COB2O)S(=O)(=O)c1ccccc1 [C30, N-(1-hydroxy-1,3-dihydrobenzo[c][1,2]oxaborol-5-yl)-N-methylbenzenesulfonamide] |
| 159 to 164 | OB1OCc2cc(F)c(NCc3ccccc3)cc21 [C71, 6-(benzylamino)-5-fluorobenzo[c][1,2]oxaborol-1(3H)-ol] |
| 75 to 77 | Fc1ccc(B2OCc3cc(F)ccc32)cc1 [9h, 1,3-Dihydro-5-fluoro-1-(4-fluorophenyl)-2,1-benzoxaborole] |
| 148 to 153 | N#Cc1ccc(Oc2cccc3c2B(O)OC3)cc1 [C74, 4-(1-hydroxy-1,3-dihydrobenzo[c][1,2]oxaborol-7-yloxy)benzonitrile] |
| 97 to 101 | OB1OCc2ccc(Oc3ccc(OC(F)(F)F)cc3)cc21 [C29, 6-(4-(trifluoromethoxy)phenoxy)benzo[c][1,2]oxaborol-1(3H)-ol] |
| 128 to 132 | OB1OCc2ccc(N3CCOCC3)cc21 [C56, 6-morpholinobenzo[c][1,2]oxaborol-1(3H)-ol] |
| 98 to 105 | OB1OCc2ccc(Oc3ccc(C(F)(F)F)cc3)cc21 [C87, 6-(4-(trifluoromethyl)phenoxy)benzo[c][1,2]oxaborol-1(3H)-ol] |
| 110 to 117.5 | OB1OCc2ccc(F)cc21 [C13, 6-fluorobenzo[c][1,2]oxaborol-1(3H)-ol] |
| 96 to 98 | CCCCC(=O)c1cccc(COc2ccc3c(c2)COB3O)c1 [C45, 1-(3-((1-hydroxy-1,3-dihydrobenzo[c][1,2]oxaborol-5-yloxy)methyl)phenyl)pentan-1-one] |
| 126 to 129 | COc1ccc(Oc2ccc3c(c2)B(O)OC3)cc1 [C31, 6-(4-methoxyphenoxy)benzo[c][1,2]oxaborol-1(3H)-ol] |
| 159 to 163 | OB1OCc2ccc(-n3cc(Sc4ccccc4)c4ccccc43)cc21 [C66, 6-(3-(phenylthio)-1H-indol-1-yl)benzo[c][1,2]oxaborol-1(3H)-ol] |
| 135 to 138 | OB1OCc2ccc(N3CCN(c4ccccn4)CC3)cc21 [C48, 6-(4-(pyridin-2-yl)piperazin-1-yl)benzo[c][1,2]oxaborol-1(3H)-ol] |
| 158 to 163 | O=C(COc1ccc2c(c1)COB2O)N1CCCCC1 [C46, 2-(1-hydroxy-1,3-dihydrobenzo[c][1,2]oxaborol-5-yloxy)-1-(pieridin-1-yl)ethanone] |
| 162 to 167 | O=[N+]([O-])c1cc2c(cc1F)COB2O [C58, 5-fluoro-6-nitrobenzo[c][1,2]oxaborol-1(3H)-ol] |
| 147 to 150 | N#Cc1cccc(COc2ccc3c(c2)COB3O)c1 [C96, 3-((1-hydroxy-1,3-dihydrobenzo[c][1,2]oxaborol-5-yloxy)methyl)benzonitrile] |
| 112 to 114 | Fc1ccc2c(c1)COB2c1cccc(Cl)c1 [9f, 1-(3-Chlorophenyl)-1,3-dihydro-5-fluoro-2,1-benzoxaborole] |
